Experiments:
[1] = system: Human embryonic stem cell H9 lines carrying MYH6-mCherry reporters; assay: hESC cardiogenesis assay; format: cell-based; conditions: for induction of cardiogenesis (class in words): dose-response behaviour
[2] = system: β-catenin-dependent canonical Wnt pathway; assay: Wnt inhibition assay; format: cell-based, human; conditions: for IC50: Wnt inhibition; for fold less potent in Wnt inhibition: compared with the well-tolerated parent (9/1)
[3] = system: Human embryonic stem cell H9 lines carrying MYH6-mCherry reporters; conditions: cited from earlier work
HEK293T cells = conditions: human
[4] = Homo sapiens, HEK-293T, HEK293T cells

## O=C1c2ccccc2-c2cccc(NC(=O)[C@H]3CC[C@H](N4C(=O)[C@@H]5[C@@H]6CC[C@@H](C6)[C@@H]5C4=O)CC3)c21 [Compound 30, 4-(cis-endo-(1,3-Dioxooctahydro-2H-4,7-methanoisoindol-2-yl))-N-(9H-fluoren-9-on-1-yl)-trans-cyclohexylcarboxamide]
[1]; hESCs
  induction of cardiogenesis (class in words): dose-dependent induction of cardiogenesis functional activity

## O=C1[C@@H]2[C@@H]3CC[C@@H](C3)[C@@H]2C(=O)N1[C@H]1CC[C@H](C(=O)Nc2ccccn2)CC1 [Compound 31, 4-(cis-endo-(1,3-Dioxooctahydro-2H-4,7-methanoisoindol-2-yl))-N-(pyridin-2-yl)-trans-cyclohexyl carboxamide]
[1]; hESCs
  induction of cardiogenesis (class in words): functionally inactive as inducers of cardiogenesis
[2]; [4]
  IC50: ~100 nM

## O=C(Nc1cccc2cccnc12)c1ccc(N2C(=O)[C@@H]3[C@H]4CC[C@H](CC4)[C@@H]3C2=O)cc1 [Compound 37, 4-cis-endo-(Hexahydro-1H-4,7-ethanoisoindole-1,3(2H)-dion-2-yl)-N-(quinolin-8-yl) benzamide]
[1]; hESCs
  induction of cardiogenesis (class in words): functionally inactive as inducers of cardiogenesis
[2]; [4]
  IC50: > 200 nM
[2]
  fold less potent in Wnt inhibition: > 10 fold

## O=C1[C@@H]2[C@@H]3CC[C@@H](C3)[C@@H]2C(=O)N1[C@H]1CC[C@@H](C(=O)Nc2cccc3cccnc23)CC1 [Compound 11, 4-(cis-endo-1,3-Dioxooctahydro-2H-4,7-methanoisoindol-2-yl)-N-(quinolin-8-yl)-cis-cyclohexyl carboxamide]
[1]; hESCs
  induction of cardiogenesis (class in words): dose-dependent induction of cardiogenesis functional activity

## O=C1[C@@H]2[C@@H]3CC[C@@H](C3)[C@@H]2C(=O)N1[C@H]1CC[C@H](C(=O)Nc2ccncc2)CC1 [Compound 33, 4-(cis-endo-(1,3-Dioxooctahydro-2H-4,7-methanoisoindol-2-yl))-N-(pyridin-4-yl)-trans-cyclohexyl carboxamide]
[1]; hESCs
  induction of cardiogenesis (class in words): functionally inactive as inducers of cardiogenesis
[2]; [4]
  IC50: ~100 nM

## O=C1[C@@H]2[C@@H]3CC[C@@H](C3)[C@@H]2C(=O)N1[C@H]1CC[C@H](C(=O)Nc2nccc3ccccc23)CC1 [Compound 13, 4-(cis-endo-1,3-Dioxooctahydro-2H-4,7-methanoisoindol-2-yl)-N-(isoquinolin-1-yl)-trans-cyclohexylcarboxamide]
[1]; hESCs
  induction of cardiogenesis (class in words): dose-dependent induction of cardiogenesis functional activity

## CC(=O)c1ccccc1NC(=O)[C@H]1CC[C@@H](N2C(=O)[C@@H]3[C@@H]4CC[C@@H](C4)[C@@H]3C2=O)CC1 [Compound 56, 4-(cis-endo-1,3-Dioxooctahydro-2H-4,7-methanoisoindol-2-yl)-N-(2-acetylphenyl)-cis-cyclohexyl carboxamide]
[1]; hESCs
  induction of cardiogenesis (class in words): dose-dependent induction of cardiogenesis functional activity

## N-[4-((3aR,4S,7R,7aS)-1,3,3a,4,7,7a-Hexahydro-1,3-dioxo-4,7-methano-2H-isoindol-2-yl)phenyl]-quinoline-8-carboxamide [Compound 52]
[1]; hESCs
  induction of cardiogenesis (class in words): functionally inactive as inducers of cardiogenesis
[2]; Wnt inhibition at 1 μM, HEK293T cells
  % inhibition (1 μM): 91 ± 1%
[2]; HEK293T cells
  IC50: 119 ± 9 nM

## Cc1ccc2nc(NC(=O)CSc3nc4c(c(=O)n3-c3ccc(F)cc3)SCC4)sc2c1 [Compound 3]
[3]; hESCs
  maximum efficacious concentration for cardiogenesis: 2.5 µM

## O=C(Nc1cccc2cccnc12)c1ccc(N2C(=O)[C@@H]3[C@H](C2=O)[C@@H]2C=C[C@H]3CC2)cc1 [Compound 36, 4-cis-endo-(3a,4,7,7a-Tetrahydro-1H-4,7-ethanoisoindole-1,3(2H)-dion-2-yl)-N-(quinolin-8-yl) benzamide]
[2]
  fold less potent in Wnt inhibition: > 10 fold

## O=C(Nc1cccc2ccccc12)c1ccc(N2C(=O)[C@@H]3[C@@H]4CC[C@@H](C4)[C@@H]3C2=O)cc1 [Compound 12, 4-(cis-endo-1,3-Dioxooctahydro-2H-4,7-methanoisoindol-2-yl)-N-(naphtalen-1-yl) benzamide]
[1]; hESCs
  induction of cardiogenesis (class in words): functionally inactive as inducers of cardiogenesis

## O=C1CCCc2cccc(NC(=O)[C@H]3CC[C@H](N4C(=O)[C@@H]5[C@@H]6CC[C@@H](C6)[C@@H]5C4=O)CC3)c21 [Compound 29, 4-(cis-endo-(1,3-Dioxooctahydro-2H-4,7-methanoisoindol-2-yl))-N-(8-oxo-5,6,7,8-tetrahydronaphthalen-1-yl)-trans-cyclohexylcarboxamide]
[1]; hESCs
  concentration giving maximum percent cardiogenesis: 150 nM
  induction of cardiogenesis (class in words): potent stimulators of cardiogenesis
[1]; ratio of concentrations for maximum cardiogenesis
  fold greater cardiogenic potency (lower concentration) compared to 1: 30 fold

## CC(=O)c1ncccc1NC(=O)[C@H]1CC[C@H](N2C(=O)[C@@H]3[C@@H]4CC[C@@H](C4)[C@@H]3C2=O)CC1 [Compound 34, 4-(cis-endo-(1,3-Dioxooctahydro-2H-4,7-methanoisoindol-2-yl))-N-(2-acetyl-pyridin-3-yl)-trans-cyclohexylcarboxamide]
[1]; hESCs
  induction of cardiogenesis (class in words): potent stimulators of cardiogenesis

## O=C1[C@@H]2[C@@H]3CC[C@@H](C3)[C@@H]2C(=O)N1[C@H]1CC[C@H](C(=O)Nc2cccc3cccnc23)CC1 [Compound 10, 4-(cis-endo-1,3-Dioxooctahydro-2H-4,7-methanoisoindol-2-yl)-N-(quinolin-8-yl)-trans-cyclohexyl carboxamide]
[1]; Homo sapiens, Embryonic stem cell, read-out: % cardiogenesis
  Emax: 145%
[1]; hESCs
  induction of cardiogenesis (class in words): potent stimulators of cardiogenesis

## O=C1[C@@H]2[C@@H]3CC[C@@H](C3)[C@@H]2C(=O)N1[C@H]1CC[C@H](C(=O)Nc2cncc3ccccc23)CC1 [Compound 14, 4-(cis-endo-1,3-Dioxooctahydro-2H-4,7-methanoisoindol-2-yl)-N-(isoquinolin-4-yl)-trans-cyclohexylcarboxamide]
[1]; hESCs
  induction of cardiogenesis (class in words): dose-dependent induction of cardiogenesis functional activity

## COc1cc(Br)ccc1NC(=O)[C@H]1CC[C@H](N2C(=O)[C@@H]3[C@@H]4CC[C@@H](C4)[C@@H]3C2=O)CC1 [Compound 53, 4-(cis-endo-1,3-Dioxooctahydro-2H-4,7-methanoisoindol-2-yl)-N-(4-bromo-2-methoxyphenyl)-trans-cyclohexylcarboxamide]
[1]; hESCs
  induction of cardiogenesis (class in words): dose-dependent induction of cardiogenesis functional activity

## CC(=O)c1ccc(NC(=O)[C@H]2CC[C@H](N3C(=O)[C@@H]4[C@@H]5CC[C@@H](C5)[C@@H]4C3=O)CC2)cn1 [Compound 35, 4-(cis-endo-(1,3-Dioxooctahydro-2H-4,7-methanoisoindol-2-yl))-N-(6-acetyl-pyridin-3-yl)-trans-cyclohexylcarboxamide]
[1]; hESCs
  induction of cardiogenesis (class in words): functionally inactive as inducers of cardiogenesis

## COc1ccc(/C=C2/SC(=S)N(CCCC(=O)O)C2=O)cc1OC [Compound 4]
[3]; at 50 μM
  cardiogenic activity (in words): weakly cardiogenic

## O=C(Nc1cccc2cccnc12)c1ccc(N2C(=O)[C@@H]3[C@@H]4CC[C@@H](C4)[C@@H]3C2=O)cc1 [Compound 9, 4-(cis-endo-1,3-Dioxooctahydro-2H-4,7-methanoisoindol-2-yl)-N-(quinolin-8-yl)benzamide]
[1]; hESCs
  induction of cardiogenesis (class in words): dose-dependent induction of cardiogenesis functional activity

## O=C(Nc1cccc2cccnc12)c1ccc(N2C(=O)[C@@H]3[C@H](C2=O)[C@@H]2C=C[C@H]3C2)cc1 [Compound 1, reference compound]
HEK293T cells
  cell toxicity: not toxic to HEK293T cells
[1]; hESCs
  induction of cardiogenesis (class in words): dose-dependent induction of cardiogenesis functional activity

## O=C1[C@@H]2[C@@H]3CC[C@@H](C3)[C@@H]2C(=O)N1[C@H]1CC[C@H](C(=O)Nc2cccnc2Cl)CC1 [Compound 55, 4-(cis-endo-1,3-Dioxooctahydro-2H-4,7-methanoisoindol-2-yl)-N-(2-chloropyridin-3-yl)-trans-cyclohexylcarboxamide]
[1]; hESCs
  induction of cardiogenesis (class in words): dose-dependent induction of cardiogenesis functional activity

## O=C(Nc1cccc2cccnc12)c1ccc(N2C(=O)C3C(C2=O)[C@H]2CC[C@@H]3O2)cc1 (stereo partly shown) [Compound 39, 4-(Hexahydro-1H-4,7-epoxyisoindole-1,3(2H)-dion-2-yl)-N-(quinolin-8-yl)benzamide]
[1]; hESCs
  induction of cardiogenesis (class in words): functionally inactive as inducers of cardiogenesis
[2]
  fold less potent in Wnt inhibition: > 10 fold

## O=C1[C@@H]2[C@@H]3CC[C@@H](C3)[C@@H]2C(=O)N1[C@H]1CC[C@H](C(=O)Nc2cccc3ccncc23)CC1 [Compound 18, 4-(cis-endo-1,3-Dioxooctahydro-2H-4,7-methanoisoindol-2-yl)-N-(isoquinolin-8-yl)-trans-cyclohexylcarboxamide]
[1]; cardiogenesis, relative to DMSO control, 625 nM
  Z score at 625 nM: negative
[1]; hESCs
  induction of cardiogenesis (class in words): dose-dependent induction of cardiogenesis functional activity

## COC(=O)c1ccccc1NC(=O)[C@H]1CC[C@H](N2C(=O)[C@@H]3[C@@H]4CC[C@@H](C4)[C@@H]3C2=O)CC1 [Compound 27]
[1]; hESCs
  induction of cardiogenesis (class in words): dose-dependent induction of cardiogenesis functional activity

## O=C1[C@@H]2[C@@H]3CC[C@@H](C3)[C@@H]2C(=O)N1[C@H]1CC[C@H](C(=O)Nc2cncc(O)c2)CC1 [Compound 54, 4-(cis-endo-1,3-Dioxooctahydro-2H-4,7-methanoisoindol-2-yl)-N-(5-hydroxyl-pyridin-3-yl)-trans-cyclohexylcarboxamide]
[1]; hESCs
  induction of cardiogenesis (class in words): dose-dependent induction of cardiogenesis functional activity

From publication PMC3335202 (Journal of Medicinal Chemistry, 2012)
